Our source for the IC50 values is paper PMC3202339 (2011).

In the assay the target is TRPV1 (Mus musculus, UniProt Q704Y3). The experiment in a line: whole-cell patch clamp, inhibition of capsaicin. Format: cell-based. For orientation: Patch clamp records ionic current or voltage across a cell membrane.
TRPV1, sequence (Q704Y3 whole entry): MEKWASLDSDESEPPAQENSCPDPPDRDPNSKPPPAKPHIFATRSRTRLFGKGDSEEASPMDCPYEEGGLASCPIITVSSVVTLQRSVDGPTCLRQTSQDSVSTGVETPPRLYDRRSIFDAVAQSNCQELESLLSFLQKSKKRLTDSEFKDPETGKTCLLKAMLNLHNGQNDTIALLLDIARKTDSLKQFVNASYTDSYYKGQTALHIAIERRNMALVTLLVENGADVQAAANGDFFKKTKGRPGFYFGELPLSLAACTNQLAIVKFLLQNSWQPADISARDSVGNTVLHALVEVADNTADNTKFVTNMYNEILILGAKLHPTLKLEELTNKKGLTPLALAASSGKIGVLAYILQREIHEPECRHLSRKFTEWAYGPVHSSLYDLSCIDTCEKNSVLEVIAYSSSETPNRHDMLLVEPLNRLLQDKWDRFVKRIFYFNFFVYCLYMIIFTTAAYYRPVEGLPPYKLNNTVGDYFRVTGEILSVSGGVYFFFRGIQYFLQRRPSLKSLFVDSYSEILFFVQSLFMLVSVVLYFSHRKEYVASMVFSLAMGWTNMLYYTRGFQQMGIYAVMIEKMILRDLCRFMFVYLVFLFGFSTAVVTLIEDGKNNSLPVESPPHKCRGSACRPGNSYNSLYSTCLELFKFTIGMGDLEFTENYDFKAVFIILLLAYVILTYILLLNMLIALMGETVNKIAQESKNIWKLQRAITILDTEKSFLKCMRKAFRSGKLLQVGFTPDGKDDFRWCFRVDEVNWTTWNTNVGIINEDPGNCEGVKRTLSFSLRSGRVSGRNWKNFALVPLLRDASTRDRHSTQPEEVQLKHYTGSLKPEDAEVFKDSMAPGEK

As to `CC(C)(C)c1ccc(/C=C/C(=O)Nc2ccc3c(c2)OCCO3)cc1` [AMG9810], the IC50 (as a rule, the concentration that inhibits the measured activity by half) stood at 163 nM. In other words, the sub-micromolar range.
